# Measurements reported in PMC2940876, “Familial hemiplegic migraine CaV2.1 channel mutation R192Q enhances ATP-gated P2X3 receptor activity of mouse sensory ganglion neurons mediating trigeminal pain” (2010).
# Target: T1, P2X3 receptor (Mus musculus, UniProt Q3UR32)
# T1 construct: gene P2rx3; native receptor in cultured mouse trigeminal ganglion neurons (WT)
# T1 sequence (Q3UR32 1-397): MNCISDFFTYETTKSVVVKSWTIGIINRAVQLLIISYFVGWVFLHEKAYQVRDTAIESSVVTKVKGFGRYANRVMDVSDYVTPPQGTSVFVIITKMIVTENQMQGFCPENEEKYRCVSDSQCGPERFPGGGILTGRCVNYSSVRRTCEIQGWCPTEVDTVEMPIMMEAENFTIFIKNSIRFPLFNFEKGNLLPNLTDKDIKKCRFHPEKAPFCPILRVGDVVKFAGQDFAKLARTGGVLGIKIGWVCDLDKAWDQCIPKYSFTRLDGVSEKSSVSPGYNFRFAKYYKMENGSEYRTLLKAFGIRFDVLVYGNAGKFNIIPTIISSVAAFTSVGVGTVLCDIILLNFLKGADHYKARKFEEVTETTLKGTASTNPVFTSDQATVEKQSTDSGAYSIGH
# Experiment: whole-cell patch clamp, agonist concentration-response on native neurons
# Format: cell-based
smiles,measurement,value
"Nc1ncnc2c1ncn2[C@@H]1O[C@H](COP(=O)(O)CP(=O)(O)OP(=O)(O)O)[C@@H](O)[C@H]1O [α,β-meATP]",EC50,6.9 ± 1.1 µM
